Reference: patent publication US20060239926A1, “Specific high-relaxivity compounds” (GUERBET, priority 2003, published 2006)

Tests used:
[1] = test system: THP-1 cells; experiment: Uptake of PS-NBD by THP-1 cells, flow cytometry; format: cell-based, human; settings: PS-NBD range 13, 32 and 64 μM; 24 hours
Procedure: In vitro validation was performed by comparing the rate of uptake by activated macrophages versus non-activated macrophages (activated THP-1 cells are positive for the PS receptor). […] PS-NBD is a phosphatidylserine comprising only one fatty chain, the other arm linked to the serine head supporting the fluorescence marker NBD.
The THP-1 cell line is a human monocyte line which, after activation, differentiates into macrophages and expresses the phosphatidylserine receptor. These cells were cultured in the presence of phosphatidylserine-NBD.
Protocol with Flow Cytometry • 2 ml of a suspension of THP-1 at 10^6 C/ml are seeded in a 6-well plate. • The THP-1 are activated for 24 hours with 50 nmol/l of PMA. • […] of each of the dilutions (from the solution at 6.25 mmol/l) are incubated for 24 hours. • The excess product is suctioned off. • The cell layer is washed with 1 ml of RPMI without phenol red. • The excess is suctioned off. • The cells are resuspended in 1 ml of PBS (detachment of the cells using a flow of medium over the layer then scraping of the cells which have not detached, using a scraper). • The cells are kept in the dark at 4° C. while awaiting reading. • The fluorescence is read in FL1 at 525 nm by flow cytometry.
PS-NBD range tested: 13, 32 and 64 μM
Groups tested: THP-1/PMA, THP-1/PS-NBD at 5 μM.

[2] = test system: primary macrophages from WHHL rabbits; experiment: Ex vivo incubation of WHHL rabbit macrophages/aortic tissues with PS-NBD, fluorescence microscopy; format: cell-based; settings: incubated 18 h ex vivo; 35 μM
Procedure: In fact macrophages were isolated from aortic arch and mesenteric lymph node samples, and then incubated for 18 h ex vivo in the presence of PS-NBD. […] More precisely, the rabbit was subjected to exsanguinating perfusion with heparinized newborn calf serum before being sacrificed. The aortic arch, the thoracic aorta and the abdominal aorta were removed. The tissue removed were incubated for 18 hours in cell culture medium to which PS-NBD had been added and were then mounted in frozen blocks in order for histological sections to be cut. Certain sections were observed by fluorescence microscopy and others were immunolabelled using an anti-rabbit macrophage antibody (RAM 11).
• Incubation of the samples at 37° C. in 24-well plates in the presence of PS-NBD at 35 μM for 18 hours. • 2 rinses of the arteries in PBS. • Embedding of each piece of aorta in a freezing gel. • Cryofixation. • Storage of the components in a −80° C. freezer. Immunohistochemistry (HEGP) • The mouse primary antibody Ram 11 is used at a 1/100 dilution. • The secondary antibody (goat anti-mouse) is coupled to alkaline phosphatase. • The chromogen used is ADC (supplied by AbCys). • Fast re counterstaining is carried out.

[3] = test system: macrophages located in the plaques; experiment: Ex vivo distribution of PS-NBD in atheroma plaques of ApoE-KO mice; format: cell-based
Procedure: For this, samples of heart comprising valves and aortic arch and also the iliac bifurcation are incubated in the presence of PS-NBD.

[4] = molecular target: T1, human MMP-1 (Homo sapiens, UniProt P03956); experiment: In vitro MMP-inhibiting activity (fluorimetry), MMP-1; format: biochemical
T1 sequence (P03956 100-469): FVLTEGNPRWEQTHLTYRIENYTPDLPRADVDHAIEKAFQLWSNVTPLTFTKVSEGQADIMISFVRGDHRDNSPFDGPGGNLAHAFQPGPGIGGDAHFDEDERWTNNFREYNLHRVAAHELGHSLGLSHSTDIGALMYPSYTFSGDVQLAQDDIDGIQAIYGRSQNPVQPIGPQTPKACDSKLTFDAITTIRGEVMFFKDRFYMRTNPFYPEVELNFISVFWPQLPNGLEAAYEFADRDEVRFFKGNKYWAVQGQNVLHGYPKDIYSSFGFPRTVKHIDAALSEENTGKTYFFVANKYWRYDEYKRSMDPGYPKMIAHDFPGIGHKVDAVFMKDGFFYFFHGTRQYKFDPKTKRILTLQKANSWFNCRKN
Procedure: The inventors assayed the in vitro activity of the P947 and P967 gadolinium-chelate contrast products functionalized with matrix metalloproteases inhibitors (MMPs), on human MMP-1 and MMP-3. As regards the affinity of the biovector component, on the receptor, the controls were two peptides:
More precisely, the in vitro MMP-inhibiting activity was evaluated in the following way: • 1. Incubation of the test product in the presence of the MMP enzyme, at 37° C., for a defined period of time, and then measurement of the fluorescence of the medium (t=0). • 2. Induction of the enzyme reaction by addition of the substrate to (which becomes fluorescent when it is cleaved by the enzyme), and then incubation at 37° C. for 40 min. A second measurement of fluorescence is then taken (t=40). • 3. The activity of the MMP enzyme is determined by subtraction of the signal measured by fluorimetry: (t=40)-(t=0). • 4. The results are expressed as percentage inhibition of the activity of the control enzyme. • 5. The standard inhibitory product is TIMP-1.
The products were tested in duplicate, at 10^−5, 10^−7 and 10^−9 M with respect to peptides. Those which contain no peptides were treated in a manner similar to the corresponding functionalized contrast products.

[5] = molecular target: T2, MMP-2 (Homo sapiens, UniProt P08253); experiment: In vitro MMP-inhibiting activity (fluorimetry), MMP-2; format: biochemical
T2 sequence (P08253 110-660): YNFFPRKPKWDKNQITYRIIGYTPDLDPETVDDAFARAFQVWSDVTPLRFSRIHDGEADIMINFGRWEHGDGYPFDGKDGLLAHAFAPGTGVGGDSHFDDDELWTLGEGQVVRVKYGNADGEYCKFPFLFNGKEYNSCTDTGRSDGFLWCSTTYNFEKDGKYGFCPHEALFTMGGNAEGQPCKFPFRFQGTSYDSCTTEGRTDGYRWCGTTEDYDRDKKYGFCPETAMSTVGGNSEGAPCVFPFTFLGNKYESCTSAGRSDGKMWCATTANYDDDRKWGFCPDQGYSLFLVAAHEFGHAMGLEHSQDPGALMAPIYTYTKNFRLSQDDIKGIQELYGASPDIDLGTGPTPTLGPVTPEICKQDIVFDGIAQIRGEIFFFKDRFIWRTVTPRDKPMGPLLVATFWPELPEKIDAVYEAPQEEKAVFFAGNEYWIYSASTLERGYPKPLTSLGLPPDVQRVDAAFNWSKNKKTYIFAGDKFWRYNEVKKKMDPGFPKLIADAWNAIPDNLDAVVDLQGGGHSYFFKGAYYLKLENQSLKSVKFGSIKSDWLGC
Procedure: The inventors also tested the in vitro activity in order to evaluate the inhibitory activity of P947 and of the tetrapeptide on MMP-2, a gelatinase A expressed constitutively in the vascular wall and overexpressed in the case of inflammation.
Control: commercial tetrapeptide (called peptide B in the study): 4-Abz-Gly-Pro-Dleu-Dala-NHOH (Bachem); inhibitor of MMP-1, MMP-2 and MMP-3.
The detailed protocol is as follows for MMP2s: the product tested is added to a 50 mM. Tris-HCl buffer (pH 7.5) containing 150 mM NaCl, 10 mM […], 0.02% NaN3, 0.05% Brij®35 and 0.35 μM MMP-2 activated by incubation for 120 minutes at 37° C. with 6.67 mM APMA. The fluorescence intensity is measured after preincubation for 30 minutes at 37° C., at lambda ex=340 nm and lambda em=405 nm. The enzyme reaction is initiated by adding 6 μM NFF-2, with subsequent incubation for 90 minutes at 37° C.

[6] = molecular target: T1, human MMP-1; settings: value of the peptide component, not of the Gd conjugate, read-out: IC50 OF THE PEPTIDE (LITERATURE); cited from earlier work
[7] = molecular target: T2, MMP-2; settings: read-out: IC50 on MMP-2 (literature); cited from earlier work

CCCCCCCCCCCCCCCC(=O)OC[C@H](COP(=O)(O)OC[C@H](N)C(=O)O)OC(=O)CCCCCNc1ccc([N+](=O)[O-])c2nonc12 [PS-NBD]
ratio of the negative control to the highest concentration (fluorescence, FL1 525 nm) [1]: > 50
intracellular accumulation in macrophages [2]: large intracellular accumulation
interaction with macrophages in atheroma plaques [3]: interacts specifically with the macrophages located in the plaques

4-Abz-Gly-Pro-Dleu-Dala-NHOH [PEPTIDE B]
SIGNIFICANT INHIBITORY EFFECT ([4]; concentration of peptide 10^−5M): 46%
CONCENTRATION OF PEPTIDE (with significant inhibitory effect) ([4]; tested at 10^−5, 10^−7 and 10^−9 M with respect to peptides): 10^−5M
concentration from which significant inhibitory activity on MMP-2 [5]: ≥ 10^−5 M
IC50 [6]: 1 µM
IC50 [7]: 30 µM
